In brackets after ≈: the same amount, converted by molar mass. Peptide text beside a SMILES is read from it.
System: P388
Test: Cytotoxicity against mouse P388 cells
Assay type: functional
Conditions: read-out: ED50 (the source's name)

Question: CC[C@H](C)[C@@H]1NC(=O)[C@@H]2CCCN2C(=O)[C@H]([C@@H](C)CC)NC(=O)[C@@H]2CCCN2C(=O)[C@H](Cc2ccc(O)cc2)NC(=O)[C@@H]2CCCN2C(=O)[C@H](Cc2ccccc2)NC1=O [PHAKELLISTATIN 1] (cyclo(FPYPIPI)) was tested. Which EC50 did it give?
Answer: 7.5 µg/mL (≈ 9.06 µM)

Source: ChEMBL document CHEMBL1147342, “Isolation and structure of the marine sponge cell growth inhibitory cyclic peptide phakellistatin 1” (1993)
